The target of one assay is T1, recombinant human NK3 receptor (Homo sapiens, UniProt P29371).
T1 construct: expressed in transfected cells; host or cells: HEK293 cells, transient expression; membranes
T1 sequence (P29371 1-465): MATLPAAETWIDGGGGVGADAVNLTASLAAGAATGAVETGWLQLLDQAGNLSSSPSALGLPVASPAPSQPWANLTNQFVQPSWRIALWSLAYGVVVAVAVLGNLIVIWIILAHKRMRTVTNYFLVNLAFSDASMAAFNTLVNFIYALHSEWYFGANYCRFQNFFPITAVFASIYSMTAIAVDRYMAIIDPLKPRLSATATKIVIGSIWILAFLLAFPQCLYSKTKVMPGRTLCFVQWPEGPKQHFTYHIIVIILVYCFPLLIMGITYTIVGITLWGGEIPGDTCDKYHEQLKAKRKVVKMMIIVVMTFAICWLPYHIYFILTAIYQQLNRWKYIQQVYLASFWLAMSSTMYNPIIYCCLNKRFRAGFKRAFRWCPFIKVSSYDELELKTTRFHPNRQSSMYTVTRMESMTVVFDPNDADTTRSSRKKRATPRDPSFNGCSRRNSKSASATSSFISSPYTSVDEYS
Description: [3H]SR142801 competition binding assay.
Conditions: not given
On to `CN(C(=O)Oc1ccc(F)cc1)[C@@H]1CN(C(=O)C2CCN(c3ccc(C(=O)NC(C)(C)C)cn3)CC2)C[C@H]1c1ccc(Cl)cc1` (racemic) [Example 120, rac-[(3S,4R)-1-(5′-tert-Butylcarbamoyl-3,4,5,6-tetrahydro-2H-[1,2′]bipyridinyl-4-carbonyl)-4-(4-chloro-phenyl)-pyrrolidin-3-yl]-methyl-carbamic acid 4-fluoro-phenyl ester], for which the Ki is 1.6 nM.
With `CN(C(=O)Oc1ccc(F)cc1)[C@@H]1CN(C(=O)C2CCN(C(=O)C3CCOCC3)CC2)C[C@H]1c1ccc(Cl)cc1` [Example 257, {(3S,4R)-4-(4-Chloro-phenyl)-1-[1-(tetrahydro-pyran-4-carbonyl)-piperidine-4-carbonyl]-pyrrolidin-3-yl}-methyl-carbamic acid 4-fluoro-phenyl ester], the Ki turned out to be 2.2 nM.
Turning to `CN(C(=O)Oc1ccc(F)cc1)[C@H]1CN(C(=O)[C@H]2CC[C@](C)(O)CC2)C[C@@H]1c1ccc(Cl)c(Cl)c1` (racemic) [Example 52, rac-[(3R,4S)-4-(3,4-Dichloro-phenyl)-1-(trans-4-hydroxy-4-methyl-cyclohexanecarbonyl)-pyrrolidin-3-yl]-methyl-carbamic acid 4-fluoro-phenyl ester], the Ki came out at 8.1 nM.
Regarding `CN(C(=O)Oc1ccc(F)cc1)[C@@H]1CN(C(=O)C2CCN(C3CCOCC3)C2)C[C@H]1c1ccc(Cl)cc1` (stereo partly drawn) [Example 179, {(3S,4R)-4-(4-Chloro-phenyl)-1-[1-(tetrahydro-pyran-4-yl)-pyrrolidine-3-carbonyl]-pyrrolidin-3-yl}-methyl-carbamic acid 4-fluoro-phenyl ester], the Ki is 56.6 nM.
As to `CN(C(=O)Oc1ccc(F)cc1)[C@@H]1CN(C(=O)C2CCN(c3ncc(C(F)(F)F)cc3Cl)CC2)C[C@H]1c1ccc(Cl)cc1` [Example 188, [(3S,4R)-4-(4-Chloro-phenyl)-1-(3′-chloro-5′-trifluoromethyl-3,4,5,6-tetrahydro-2H-[1,2]bipyridinyl-4-carbonyl)-pyrrolidin-3-yl]-methyl-carbamic acid 4-fluoro-phenyl ester], the Ki amounted to 14.6 nM.
As to `CN(C(=O)Oc1ccc(F)cc1)[C@H]1CN(C(=O)C2CCOCC2)C[C@@H]1c1ccc(Cl)c(Cl)c1` (racemic) [Example 44, rac-[(3R,4S)-4-(3,4-Dichloro-phenyl)-1-(tetrahydro-pyran-4-carbonyl)-pyrrolidin-3-yl]-methyl-carbamic acid 4-fluoro-phenyl ester], the Ki was 2.9 nM.
Same read-out and setting: the figure for `CC(=O)N1CCC(C(=O)N2C[C@@H](N(C)C(=O)Oc3ccc(F)cc3)[C@H](c3ccc(Cl)cc3)C2)CC1` [Example 246, [(3S,4R)-1-(1-Acetyl-piperidine-4-carbonyl)-4-(4-chloro-phenyl)-pyrrolidin-3-yl]-methyl-carbamic acid 4-fluoro-phenyl ester] is 2.3 nM.
Still for that read-out and setting: the result for `CN(C(=O)Oc1ccc(F)cc1)[C@H]1CN(C(=O)[C@H]2CC[C@H](O)CC2)C[C@@H]1c1ccc(Cl)c(Cl)c1` (racemic) [Example 37, rac-[(3R,4S)-4-(3,4-Dichloro-phenyl)-1-(trans-4-hydroxy-cyclohexanecarbonyl)-pyrrolidin-3-yl]-methyl-carbamic acid 4-fluoro-phenyl ester] reads 0.7 nM; that for `CN(C(=O)Oc1ccc(F)cc1)[C@@H]1CN(C(=O)C2CCN(C(=O)C3CC3)C2)C[C@H]1c1ccc(Cl)cc1` (stereo partly drawn) [Example 171, [(3S,4R)-4-(4-Chloro-phenyl)-1-(1-cyclopropanecarbonyl-pyrrolidine-3-carbonyl)-pyrrolidin-3-yl]-methyl-carbamic acid 4-fluoro-phenyl ester], 9.5 nM; that for `CN(C(=O)Oc1ccc(F)cc1)[C@@H]1CN(C(=O)C2CCN(C(=O)c3ccc(C(F)(F)F)cn3)CC2)C[C@H]1c1ccc(F)cc1` [Example 290, {(3S,4R)-4-(4-Fluoro-phenyl)-1-[1-(5-trifluoromethyl-pyridine-2-carbonyl)-piperidine-4-carbonyl]-pyrrolidin-3-yl}-methyl-carbamic acid 4-fluoro-phenyl ester], 99.8 nM.
Still for that read-out and setting: the result for `CN(C(=O)Oc1ccc(F)cc1)[C@@H]1CN(C(=O)C2CCN(C(=O)C3CC3(C)C)CC2)C[C@H]1c1ccc(Cl)cc1` (stereo partly drawn) [Example 260, {(3S,4R)-4-(4-Chloro-phenyl)-1-[1-(2,2-dimethyl-cyclopropanecarbonyl)-piperidine-4-carbonyl]-pyrrolidin-3-yl}-methyl-carbamic acid 4-fluoro-phenyl ester] reads 1.5 nM; that for `CN(C(=O)Oc1ccc(F)cc1)[C@@H]1CN(C(=O)C2CCN(C(=O)c3ccc(C(F)(F)F)cn3)CC2)C[C@H]1c1ccc(Cl)cc1` [Example 261, {(3S,4R)-4-(4-Chloro-phenyl)-1-[1-(5-trifluoromethyl-pyridine-2-carbonyl)-piperidine-4-carbonyl]-pyrrolidin-3-yl}-methyl-carbamic acid 4-fluoro-phenyl ester], 18.9 nM.
As for `Cc1ccc(OC(=O)N(C)[C@@H]2CN(C(=O)C3CCN(C(=O)C4(C)CC4)CC3)C[C@H]2c2ccc(Cl)c(Cl)c2)cc1` [Example 17, {(3S,4R)-4-(3,4-Dichloro-phenyl)-1-[1-(1-methyl-cyclopropanecarbonyl)-piperidine-4-carbonyl]-pyrrolidin-3-yl}-methyl-carbamic acid p-tolyl ester], the Ki worked out at 0.7 nM.
Consider `CN(C(=O)Oc1ccc(F)cc1)[C@@H]1CN(C(=O)C2CCN(C(=O)c3ccc(F)cn3)CC2)C[C@H]1c1ccc(Cl)c(Cl)c1` [Example 280, {(3S,4R)-4-(3,4-Dichloro-phenyl)-1-[1-(5-fluoro-pyridine-2-carbonyl)-piperidine-4-carbonyl]-pyrrolidin-3-yl}-methyl-carbamic acid 4-fluoro-phenyl ester], for which the Ki is 0.8 nM.
`CC(C)COC(=O)N(C)[C@@H]1CN(C(=O)C2CCN(C(=O)C3(C)CC3)CC2)C[C@H]1c1ccc(Cl)cc1` [Example 141, {(3S,4R)-4-(4-Chloro-phenyl)-1-[1-(1-methyl-cyclopropanecarbonyl)-piperidine-4-carbonyl]-pyrrolidin-3-yl}-methyl-carbamic acid isobutyl ester]: the Ki amounted to 13.5 nM.
On the same count and under the same terms, the figure for `CN(C(=O)Oc1ccc(F)cc1)[C@@H]1CN(C(=O)C2CCN(c3ncc(Cl)cn3)CC2)C[C@H]1c1ccc(Cl)cc1` [Example 184, {(3S,4R)-4-(4-Chloro-phenyl)-1-[1-(5-chloro-pyrimidin-2-yl)-piperidine-4-carbonyl]-pyrrolidin-3-yl}-methyl-carbamic acid 4-fluoro-phenyl ester] is 6.7 nM; for `CN(C(=O)Oc1ccc(F)cc1)[C@@H]1CN(C(=O)C2CCN(C(=O)C3CCC(=O)NC3)CC2)C[C@H]1c1ccc(Cl)cc1` (stereo partly drawn) [Example 263, {(3S,4R)-4-(4-Chloro-phenyl)-1-[1-(6-oxo-piperidine-3-carbonyl)-piperidine-4-carbonyl]-pyrrolidin-3-yl}-methyl-carbamic acid 4-fluoro-phenyl ester] it is 15.1 nM; for `CN(C(=O)Oc1ccc(F)cc1)[C@@H]1CN(C(=O)C2CCN(C(=O)C3CCC(=O)NC3)CC2)C[C@H]1c1ccc(F)cc1` (stereo partly drawn) [Example 291, {(3S,4R)-4-(4-Fluoro-phenyl)-1-[1-(6-oxo-piperidine-3-carbonyl)-piperidine-4-carbonyl]-pyrrolidin-3-yl}-methyl-carbamic acid 4-fluoro-phenyl ester] it is 144 nM.
As to `CN(C(=O)Oc1ccc(F)cc1)[C@@H]1CN(C(=O)C2CCN(C(=O)C3(C)CC3)CC2)C[C@@H]1c1ccc(Cl)c(Cl)c1` (stereo in doubt) [Example 62, {(3S,4S)-4-(3,4-Dichloro-phenyl)-1-[1-(1-methyl-cyclopropanecarbonyl)-piperidine-4-carbonyl]-pyrrolidin-3-yl}-methyl-carbamic acid 4-fluoro-phenyl ester], the Ki stood at 31.4 nM.
Still for that read-out and setting: the figure for `CN(C(=O)Oc1ccc(C(F)(F)F)cc1)[C@@H]1CN(C(=O)C2CCN(c3ccc(C#N)cn3)CC2)C[C@H]1c1ccc(Cl)cc1` [Example 207, [(3S,4R)-4-(4-Chloro-phenyl)-1-(5′-cyano-3,4,5,6-tetrahydro-2H-[1,2′]bipyridinyl-4-carbonyl)-pyrrolidin-3-yl]-methyl-carbamic acid 4-trifluoromethyl-phenyl ester] is 0.6 nM.

Staying with this assay, now noted: hNK-3 receptor affinity; membranes from HEK293 cells transiently expressing recombinant human NK3 receptor; [3H]SR142801; Cheng-Prussoff; read-out: Data Ki.
As to `CN(C(=O)OC1CCOCC1)[C@@H]1CN(C(=O)C2CCN(c3ccc(C#N)cn3)CC2)C[C@H]1c1ccc(Cl)cc1` [Example 156, [(3S,4R)-4-(4-Chloro-phenyl)-1-(5′-cyano-3,4,5,6-tetrahydro-2H-[1,2′]bipyridinyl-4-carbonyl)-pyrrolidin-3-yl]-methyl-carbamic acid tetrahydro-pyran-4-yl ester], the Ki was 18.3 nM.
Turning to `CN(C(=O)OCCC1CC1)[C@@H]1CN(C(=O)C2CCN(C(=O)C3(C)CC3)CC2)C[C@H]1c1ccc(Cl)c(Cl)c1` [Example 36, {(3S,4R)-4-(3,4-Dichloro-phenyl)-1-[1-(1-methyl-cyclopropanecarbonyl)-piperidine-4-arbonyl]-pyrrolidin-3-yl}-methyl-carbamic acid 2-cyclopropyl-ethyl ester], the Ki worked out at 33 nM.
Turning to `CN(C(=O)OCC1CC1)[C@@H]1CN(C(=O)C2CCN(c3ccc(C#N)cn3)CC2)C[C@H]1c1ccc(Cl)cc1` [Example 215, [(3S,4R)-4-(4-Chloro-phenyl)-1-(5′-cyano-3,4,5,6-tetrahydro-2H-[1,2′]bipyridinyl-4-carbonyl)-pyrrolidin-3-yl]-methyl-carbamic acid cyclopropylmethyl ester], the Ki came out at 8.4 nM.

Values taken from patent US9226916B2, “Pyrrolidine derivatives” (HOFFMANN-LA ROCHE INC., priority 2009, dated 2016).
